Here are results for 16 compounds from ChEMBL document CHEMBL1139205, “Newer tetracycline derivatives: synthesis, anti-HIV, antimycobacterial activities and inhibition of HIV-1 integrase” (Bioorg Med Chem Lett, 2007).

Structures are written as SMILES. Values after ≈ are worked out from the molar mass of the structure shown.

Data set [1] deals with T1, Human immunodeficiency virus type 1 integrase (Human immunodeficiency virus 1, UniProt Q7ZJM1). The experiment in a line: Inhibition of HIV1 recombinant integrase strand transfer activity.
A short description of data set [2]: Cytotoxicity against CEM cells after 5 days by MTT method. In kind it is cell-based. To be noted: human, CCRF-CEM (CEM) cells. On the technique in general: Formazan colour is commonly taken as a measure of viable cells.
The test system of data set [3] is Mycobacterium tuberculosis. Nature of the data set: Antimycobacterial activity against Mycobacterium tuberculosis by agar dilution method. It counts as functional. In general terms: In agar dilution, organisms are placed on agar that contains the substance at set levels.
The target in data set [4] is T1, Human immunodeficiency virus type 1 integrase. The experiment in a line: Inhibition of HIV1 recombinant integrase 3'-processing activity.
The subject of data set [5] is Human immunodeficiency virus 1. The experiment in a line: Antiviral activity against HIV1 3B in CEM cells assessed as inhibition of viral-induced cytopathicity. It counts as functional, organism-based. To be noted: Human immunodeficiency virus 1, 3B, CCRF-CEM.
Data set [6] in a line: Selectivity index, ratio of CC50 for CEM cells to EC50 for HIV1 3B. It counts as functional, CCRF-CEM.

T1 sequence (Q7ZJM1 whole entry): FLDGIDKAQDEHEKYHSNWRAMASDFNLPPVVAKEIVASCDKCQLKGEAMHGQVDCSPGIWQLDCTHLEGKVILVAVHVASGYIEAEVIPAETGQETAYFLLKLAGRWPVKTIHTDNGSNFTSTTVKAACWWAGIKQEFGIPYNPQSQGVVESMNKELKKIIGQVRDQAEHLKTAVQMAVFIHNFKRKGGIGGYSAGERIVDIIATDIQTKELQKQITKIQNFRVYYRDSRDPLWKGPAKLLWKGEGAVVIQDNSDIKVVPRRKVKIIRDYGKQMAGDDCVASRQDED

What is called IC50 is the concentration needed to halve the response being measured. The term CC50 denotes the concentration at which the toxic effect on the cells reaches its halfway point. High values mean better tolerance by the cells, low ones harm at low concentration. One may read the MIC as the least concentration at which growth counts as inhibited. Higher therefore signals weaker potency. By EC50 is commonly meant the concentration that produces a half-maximal response. For `CN(C)[C@@H]1C(O)=C(C(=O)NCN2CCN(c3cc4c(cc3F)c(=O)c(C(=O)O)cn4C3CC3)CC2)C(=O)[C@@]2(O)C(O)=C3C(=O)c4c(O)cccc4[C@@](C)(O)[C@H]3[C@H](O)[C@@H]12`, the IC50 was 17 µM in data set [1] and 38 µM in data set [4]. The compound further displayed a CC50 at 120 h in data set [2] of 17.7 µM. Moreover, inhibition of growth in data set [3] (MIC) required 0.39 µg/mL (≈ 0.485 µM). Besides, the EC50 in data set [5] was above 17.7 µM.

In the case of `CCn1cc(C(=O)O)c(=O)c2cc(F)c(N3CCN(CNC(=O)C4=C(O)[C@@H](N(C)C)[C@@H]5C[C@@H]6Cc7c(N(C)C)ccc(O)c7C(=O)C6=C(O)[C@]5(O)C4=O)C(C)C3)c(F)c21` (stereo not given in full), the IC50 in data set [1] was 18 µM; in data set [4], 20 µM. Besides, the “Ratio CC50/EC50” value in data set [6] is on record as above 38. The CC50 at 120 h in data set [2] is above 200 µM. Also, the MIC in data set [3] amounted to 0.2 µg/mL (≈ 0.244 µM). In addition, the EC50 in data set [5] turned out to be 5.2 µM.

In data set [2], `COc1c(N2CCN(CNC(=O)C3=C(O)[C@@H](N(C)C)[C@@H]4C[C@@H]5Cc6c(N(C)C)ccc(O)c6C(=O)C5=C(O)[C@]4(O)C3=O)C(C)C2)c(F)cc2c(=O)c(C(=O)O)cn(C3CC3)c12` (stereo not given in full) gave a CC50 at 120 h of 126 µM. Also, the MIC in data set [3] was 0.2 µg/mL (≈ 0.237 µM). For the same compound, the EC50 in data set [5] was above 126 µM.

`CCn1cc(C(=O)O)c(=O)c2cc(F)c(N3CCN(CNC(=O)C4=C(O)[C@@H](N(C)C)[C@@H]5[C@@H](O)[C@H]6C(=C(O)[C@]5(O)C4=O)C(=O)c4c(O)cccc4[C@@]6(C)O)C(C)C3)c(F)c21` (stereo not given in full): the CC50 at 120 h in data set [2] stood at 37.4 µM. Moreover, inhibition of growth in data set [3] (MIC) required 0.78 µg/mL (≈ 0.947 µM). Further, in data set [5], the EC50 was 15.1 µM.

Consider `CN(C)[C@@H]1C(O)=C(C(=O)NCN2CCN(c3cc4c(cc3F)c(=O)c(C(=O)O)cn4C3CC3)CC2)C(=O)[C@@]2(O)C(O)=C3C(=O)c4c(O)cccc4[C@@](C)(O)[C@H]3C[C@@H]12`, for which the IC50 in data set [1] was found to be 12 µM; in data set [4] it was 20 µM. Besides, in data set [2], the CC50 at 120 h stood at 141 µM. For the same compound, the MIC in data set [3] came to 0.39 µg/mL (≈ 0.495 µM). The EC50 in data set [5] was determined as 8.4 µM.

Turning to `COc1c(N2CCN(CNC(=O)C3=C(O)[C@@H](N(C)C)[C@@H]4[C@@H](O)[C@H]5C(=C(O)[C@]4(O)C3=O)C(=O)c3c(O)cccc3[C@@]5(C)O)C(C)C2)c(F)cc2c(=O)c(C(=O)O)cn(C3CC3)c12` (stereo not given in full), the results for the IC50 in data set [1] and in data set [4] were 13.5 µM and 28 µM, respectively. This compound returned a CC50 at 120 h in data set [2] of 28.9 µM. In addition, in data set [3], the MIC came out at 0.39 µg/mL (≈ 0.46 µM). Moreover, the EC50 in data set [5] was above 28.9 µM.

As for `CCn1cc(C(=O)O)c(=O)c2cc(F)c(N3CCN(CNC(=O)C4=C(O)[C@@H](N(C)C)[C@@H]5C[C@@H]6Cc7c(N(C)C)ccc(O)c7C(=O)C6=C(O)[C@]5(O)C4=O)CC3)cc21`, the CC50 at 120 h in data set [2] worked out at 130 µM. Further, the MIC in data set [3] was 0.78 µg/mL (≈ 0.989 µM). For the same compound, the concentration giving a half-maximal response (EC50) in data set [5] was above 130 µM.

Consider `CN(C)c1ccc(O)c2c1C[C@H]1C[C@H]3[C@H](N(C)C)C(O)=C(C(=O)NCN4CCN(c5cc6c(cc5F)c(=O)c(C(=O)O)cn6C5CC5)CC4)C(=O)[C@@]3(O)C(O)=C1C2=O`, for which the CC50 at 120 h in data set [2] is 120 µM. The compound further had an MIC in data set [3] of 0.78 µg/mL (≈ 0.974 µM). Also, the EC50 in data set [5] is above 120 µM.

Turning to `CCn1cc(C(=O)O)c(=O)c2cc(F)c(N3CCN(CNC(=O)C4=C(O)[C@@H](N(C)C)[C@@H]5C[C@H]6C(=C(O)[C@]5(O)C4=O)C(=O)c4c(O)cccc4[C@@]6(C)O)C(C)C3)c(F)c21` (stereo not given in full), the IC50 came out at 44 µM in data set [1] and 65 µM in data set [4]. Further, the CC50 at 120 h in data set [2] was above 200 µM. Besides, in data set [3], 1.56 µg/mL (≈ 1.93 µM) was the least that counted as inhibitory (MIC). For the same compound, in data set [5], the EC50 came out at 7.58 µM.

Turning to `COc1c(N2CCN(CNC(=O)C3=C(O)[C@@H](N(C)C)[C@@H]4C[C@H]5C(=C(O)[C@]4(O)C3=O)C(=O)c3c(O)cccc3[C@@]5(C)O)C(C)C2)c(F)cc2c(=O)c(C(=O)O)cn(C3CC3)c12` (stereo not given in full), half-maximal cytotoxicity in data set [2] (CC50 at 120 h) was put at 140 µM. Further, the MIC in data set [3] worked out at 0.2 µg/mL (≈ 0.24 µM). The EC50 in data set [5] was 20.2 µM.

In the case of `CCn1cc(C(=O)O)c(=O)c2cc(F)c(N3CCN(CNC(=O)C4=C(O)[C@@H](N(C)C)[C@@H]5[C@@H](O)[C@H]6C(=C(O)[C@]5(O)C4=O)C(=O)c4c(O)cccc4[C@@]6(C)O)CC3)cc21`, the IC50 in data set [1] was 12 µM; in data set [4], 21 µM. The CC50 at 120 h in data set [2] was 40 µM. The same compound gave an MIC in data set [3] of 0.78 µg/mL (≈ 0.985 µM). For the same compound, the EC50 in data set [5] is 12.2 µM.

On to `CCn1cc(C(=O)O)c(=O)c2cc(F)c(N3CCN(CNC(=O)C4=C(O)[C@@H](N(C)C)[C@@H]5C[C@H]6C(=C(O)[C@]5(O)C4=O)C(=O)c4c(O)cccc4[C@@]6(C)O)CC3)cc21`, for which the figures for the IC50 in data set [1] and in data set [4] were 13 µM and 20 µM, respectively. Further, the CC50 at 120 h in data set [2] turned out to be 131 µM. In data set [3], this compound had an MIC of 0.78 µg/mL (≈ 1.01 µM). For the same compound, the EC50 in data set [5] was 14.6 µM.

As to `CCn1cc(C(=O)O)c(=O)c2cc(F)c(N3CCNC(C)C3)c(F)c21` (stereo not given) [LOMEFLOXACIN], inhibition of growth in data set [3] (MIC) required 6.25 µg/mL (≈ 17.8 µM).

Turning to `CN(C)c1ccc(O)c2c1C[C@H]1C[C@H]3[C@H](N(C)C)C(O)=C(C(N)=O)C(=O)[C@@]3(O)C(O)=C1C2=O` [MINOCYCLINE], the CC50 at 120 h in data set [2] stood at 52.1 µM. This compound also gave an MIC in data set [3] above 6.25 µg/mL. In addition, in data set [5], the EC50 is above 52.1 µM.

For `CN(C)[C@@H]1C(O)=C(C(=O)NCN2CCCC2)C(=O)[C@@]2(O)C(O)=C3C(=O)c4c(O)cccc4[C@@](C)(O)[C@H]3C[C@@H]12` [ROLITETRACYCLINE], the IC50 in data set [1] stood at 34 µM; in data set [4] it was 28 µM. The compound also registered a CC50 at 120 h in data set [2] of 45.5 µM. The compound also showed an MIC in data set [3] above 6.25 µg/mL. In addition, in data set [5], the EC50 is above 45.5 µM.

Turning to `CN(C)[C@@H]1C(O)=C(C(N)=O)C(=O)[C@@]2(O)C(O)=C3C(=O)c4c(O)cccc4[C@@](C)(O)[C@H]3C[C@@H]12` [TETRACYCLINE], the IC50 in data set [1] was 188 µM; in data set [4], 204 µM. The compound further returned a CC50 at 120 h in data set [2] of 40.5 µM. The compound further yielded an MIC in data set [3] above 6.25 µg/mL. Moreover, the EC50 in data set [5] is above 40.5 µM.
